Reference: PMC11061419, “Identification of novel small molecule inhibitors of twin arginine translocation (Tat) pathway and their effect on the control of Campylobacter jejuni in chickens” (Frontiers in Microbiology, 2024)
Converted amounts (≈) assume the structure as drawn.

Legend:
C. jejuni Au-13 = assay: Copper sulfate sensitivity dose–response assay in vitro (MIC/MBC); assay type: cell-based; details: Campylobacter jejuni; for MIC: AU13, read-out: MIC, Au-13 (Table S4); for MBC: AU13, 0.5 mM CuSO4, read-out: MBC, Au-13 (Table S5)
Method: (§1) Campylobacter jejuni 81–176 was the primary model strain used for the selection of the potential Tat-dependent inhibitors by high-throughput screening. C. jejuni 81–176 is resistant to 0.5 and 1 mM CuSO4 (Supplementary Figure S1). C. jejuni 81–176 tatC knockout mutant (C. jejuni ΔtatC) was used to confirm the Tat-dependent inhibitory effect of the selected SM. C. jejuni ΔtatC is susceptible to 0.5 mM and higher of CuSO4 ([Rajashekara et al., 2009]). The specificity of the Tat-dependent inhibitors was also tested on 11 additional Campylobacter strains (C. coli ATCC33559 and 10 other C. jejuni strains isolated from chickens) and 7 commensal/beneficial bacteria (Supplementary Table S1). The […] (Au-13, Au-20, Au-38, Au-39, Au-47, Au-50, Au-24, Au-32, Au-44, and Au-45) were selected based on their single nucleotide polymorphism (SNP)-type and percent of prevalence in chickens ([Merchant-Patel et al., 2008]; [Kumar et al., 2016]). Additional details about the bacterial strains are shown in Supplementary Table S1.
(§2) In total, 19 SMs were two-fold serially diluted to obtain a final SM concentration ranging from 6.25 to 0.012 μg/mL. C. jejuni 81–176 was then treated with a determined concentration of SM, as described in the copper sensitivity assay. […] The lowest bactericidal SM concentration was considered the MBC (no increase in OD600 over time and no viable cells were recovered on agar plate after challenge) (N = 3 replicates per SM). […] However, these SMs were two-fold serially diluted to obtain a final SM concentration ranging from 5 μg to 0.0625 μg for testing (N = two independent experiments with four technical replicate for each SM).

C. jejuni Au-39 = assay: as above; assay type: cell-based; details: Campylobacter jejuni; for MIC: AU39, read-out: MIC, Au-39 (Table S4); for MBC: AU39, 0.5 mM CuSO4, read-out: MBC, Au-39 (Table S5)
Method: as §1, §2

[1] = system: C. jejuni (mixture of five strains) in chicken ceca; assay: C. jejuni persistence in ceca of 5-week-old colonized chickens; assay type: in vivo; details: for decrease of cecal C. jejuni colonization/load: 3 and 5-week-old chickens, 5-day treatment twice a day, 0.225 mg or 0.127 mg of SM per kg body weight; for reduction in C. jejuni population per gram of cecum compared with the DMSO control group: 5-week-old chickens, oral twice a day for 5 days, approximately 0.225 mg of SM per kg body weight
Method: Four SMs (T1, T2, T7, and T8) were selected from the initial list of eight SMs based on their low MBC in Caco2 cells (<5 μg SM/ml), low cytotoxicity indexes (<20% toxicity at 5 μg SM /ml), and their minimal effect on commensal bacterial species (less than two species inhibited by the SM out of the seven strains tested; Table 1). The antimicrobial efficacy of our SM was tested on 5-week-old chickens, to assess the clearance of C. jejuni load right before slaughter age. Overall, 5-week-old Campylobacter-free, i.e., specific pathogen-free [SPF] chickens were inoculated orally with a mixture of five C. jejuni strains (10^5 CFU/chicken, Supplementary Table S3). Rectal swabs were collected 1 day post-inoculation (DPI) to confirm C. jejuni colonization (CFU/g of feces) in birds. From 2 DPI to 7 DPI, groups of 4–5 chickens were treated orally twice a day with one of the four SMs (T1, T2, T7, or T8; approximately 0.225 mg of SM per kg body weight). Details of the treatment groups and the inoculum are shown in Supplementary Table S3.
(§3) For both experiments, C. jejuni colonized-chickens treated with 0.0001% DMSO and colonized chickens without additional carrier treatment (non-treated) were used as controls (n = 3–6 chicken per group). Details of the treatment groups and the inoculum are shown in Supplementary Table S3. Both 3 and 5-week-old chickens were euthanized at 7 DPI using carbon dioxide gas and ceca (cecal content and the pouch) and were aseptically collected. One of the ceca pairs was immediately stored at −80°C for microbiota studies. The other ceca were suspended in 1X PBS, homogenized, serially diluted, plated on MH media supplemented with Campylobacter Selective Supplement (CSS) agar plate, and incubated for 48 h at 42°C in microaerophilic conditions to determine C. jejuni load in the ceca (CFU/g of ceca).

[2] = system: C. jejuni (mixture of five strains) in chicken ceca; assay: C. jejuni persistence in ceca of 3-week-old colonized chickens; assay type: in vivo; details: 3-week-old chickens, oral twice a day for 5 days, approximately 0.127 mg of SM per kg body weight
Method: The antimicrobial efficacy of T1, T7, and T8 was also tested on 3-week-old chickens to assess the clearance of C. jejuni load in chicken right after inoculation. Overall, 3-week-old Campylobacter-free chickens were inoculated orally with a mixture of five C. jejuni strains (10^5 CFU/chicken, Supplementary Table S3). Rectal swabs were collected 1 DPI to confirm the intestinal colonization of the birds by C. jejuni (CFU/g of feces). From 2 DPI, chickens were treated orally twice a day for 5 days (from 2 DPI to 7 DPI) with one of the SMs (T1, T7, or T8; approximately 0.127 mg of SM per kg body weight; n = 5–6 chicken per group). Details of the treatment groups and the inoculum are shown in Supplementary Table S3.
as §3, with “The other ceca were suspended in 1X PBS, homogenized, serially diluted, plated on MH media supplemented with Campylobacter Selective Supplement (CSS) agar plate, and incubated for 48 h at 42°C in microaerophilic conditions to determine C. jejuni load in the ceca (CFU/g of ceca).” left out

| Structure (SMILES) | MIC (C. jejuni Au-13) | MBC (C. jejuni Au-13) | MIC (C. jejuni Au-39) | MBC (C. jejuni Au-39) | decrease of cecal C. jejuni colonization/load [1] | reduction in C. jejuni population per gram of cecum compared with the DMSO control group [1] | reduction in C. jejuni population per gram of cecal contents compared with the DMSO-treated group [2] |
| --- | --- | --- | --- | --- | --- | --- | --- |
| CC(C)(C)NC(=S)NNc1c(Cl)cncc1Cl [T2] | 0.31 µg/mL (≈ 1.06 µM) | 0.62 µg/mL (≈ 2.11 µM) | 0.31 µg/mL (≈ 1.06 µM) | 0.62 µg/mL (≈ 2.11 µM) | up to 1.2 log | 1.2 log |  |
| CSc1ccccc1-c1nnc(NC(=O)Cc2ccccc2)o1 [T7] | 0.31 µg/mL (≈ 0.953 µM) | 0.62 µg/mL (≈ 1.91 µM) | 0.31 µg/mL (≈ 0.953 µM) | 0.62 µg/mL (≈ 1.91 µM) | up to 1.2 log | 0.5 log | 0.9 log |
| CCN(CC)/C(C)=N/C(=O)Nc1ccccc1 [T8] | 0.06 µg/mL (≈ 0.257 µM) | 0.06 µg/mL (≈ 0.257 µM) | 0.25 µg/mL (≈ 1.07 µM) | 0.25 µg/mL (≈ 1.07 µM) |  | 0.5 log |  |
| CCCNC(=S)Nc1cc(OC)cc(OC)c1 [T1] | 1.25 µg/mL (≈ 4.91 µM) | 2.5 µg/mL (≈ 9.83 µM) | 0.31 µg/mL (≈ 1.22 µM) | 0.62 µg/mL (≈ 2.44 µM) |  | did not reduce |  |
